In general, NOAEL refers to the highest tested level that showed no adverse finding.

Where “and” joins values, the source holds several entries; their conditions need not be identical. Equal entries are not always repeated.

For one data set, the system named is Apis mellifera. Particulars: acute; for LD50: mortality.
Another data set has as its system Colinus virginianus. As to conditions: for LC50: diet.
Another data set has as its system Oryctolagus sp. As to conditions: developmental; development.
The next data set deals with Plant. As to conditions: acute.
Another data set relates to Pontoscolex corethrurus. Particulars: for LC50: acute, mortality.
Another data set concerns Rattus norvegicus. As to conditions: for LD50: acute, mortality.
The next data set deals with Anas platyrhynchos. As to conditions: acute; oral; unspecified; mortality.
The next data set has as its system Anatidae. As to conditions: reproductive.
A further data set deals with Tagia sp. Particulars: chronic/long-term.
[1] abbreviates: chronic, duration: 2 years, oral, diet, M, organ weight.

With `CCCCOCCOC(=O)COc1nc(Cl)c(Cl)cc1Cl` [Triclopyr butotyl], the LEC in the data set on Apis mellifera (dermal) is more than 100 µg/piece; in the data set on Plant, 2200 µg/L. Besides, the LD50 with Apis mellifera (oral, unspecified) was more than 100 µg/piece; with Colinus virginianus (acute, oral, mortality), 735 mg/kg; in the data set with Rattus norvegicus (oral) it was 803 mg/kg. The LC50 in the data set with Colinus virginianus (acute, oral, mortality) is 1890 mg/kg-day; in the data set with Pontoscolex corethrurus, more than 521 mg/kg. The figures for the NOAEL with Oryctolagus sp., with Rattus norvegicus (chronic) and with Rattus norvegicus (setting [1]) were 30 mg/kg-day, 5 mg/kg-day and 3 mg/kg-day, respectively. The same molecule yielded an NOEC with Pontoscolex corethrurus (chronic/long-term) of 9.6 mg/kg.
Turning to `O=C(O)COc1nc(Cl)c(Cl)cc1Cl` [Triclopyr], the LEC is, setting by setting: (acute) 117 mg/L and > 131 mg/L and 75.8 mg/L; (chronic) 46.3 mg/L and 48.5 mg/L. Also, the LD50 is 1700 mg/kg in the data set on Anas platyrhynchos; more than 100 µg/piece in the data set with Apis mellifera (dermal); more than 100 µg/piece with Apis mellifera (oral, unspecified); 630 mg/kg in the data set on Rattus norvegicus (oral). Also, the figures for the NOEC in the data set on Anatidae, in the data set with Colinus virginianus (reproduction developmental) and with Tagia sp. were 30 mg/kg-day, 500 mg/kg-day and 9.6 mg/kg, respectively. In addition, the LC50 in the data set on Colinus virginianus (acute, oral, mortality) is 1030 mg/kg-day; with Pontoscolex corethrurus it was more than 983 mg/kg. The NOAEL with Oryctolagus sp. was 30 mg/kg-day; with Rattus norvegicus (setting [1]), 3 mg/kg-day; in the data set on Rattus norvegicus (reproduction developmental, reproduction), 25 mg/kg-day; in the data set with Rattus norvegicus (subchronic, duration: 13 weeks, oral, diet, M/F, histopathology: nonneoplastic) it was 5 mg/kg-day.
